# Measured values taken from paper PMC6684654 (Nature Communications, 2019).
# “And” between values parts separate entries of the source, which are not always exact repeats. Equal values may be shown once. Bridge positions count the residues as written; N and C are the ends. Ends that are not written are not given here.
# T1: New Delhi metallo-β-lactamase-1 (NDM-1), without signal peptide, amino-terminal histidine tag (RED-tris-NTA second-generation dye on the His-tag (in the MST assay))
# T1 chain: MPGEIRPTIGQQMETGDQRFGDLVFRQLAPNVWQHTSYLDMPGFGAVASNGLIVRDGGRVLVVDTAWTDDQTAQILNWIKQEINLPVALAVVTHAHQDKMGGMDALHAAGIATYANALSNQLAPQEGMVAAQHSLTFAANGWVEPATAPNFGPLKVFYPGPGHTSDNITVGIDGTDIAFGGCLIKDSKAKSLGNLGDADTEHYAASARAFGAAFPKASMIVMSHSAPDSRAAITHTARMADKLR
# Experiments:
# [1] = tested on: NDM-1 E. coli XJ141047; test: Kirby Bauer disc diffusion; assay type: cell-based; settings: for inhibition zone diameter: Escherichia coli, read-out: KB disc diffusion
# Excerpt: (§1) Supplementary Table 1. Identification and antibiotic susceptibility of NDM-1-producing E. coli strains. […]
# (§2) Cefoperazone/ sul bact am KB — — 7 (R) 7 (R) 7 (R)
# (§3) Nitrofurantoi n KB — — 14 (R) 17 (R) 19 (S) […]
# (§4) R, resistant; S, sensitive; M IC , minimum inhibitory concentration; KB, Kirb y Bauer disc diffusion method.
# (§5) The unit of M IC is “ μ g/ mL”. The unit of KB is “ mm” .
# [2] = tested on: NDM-1 E. coli XJ141015; test: Kirby Bauer disc diffusion; assay type: cell-based
# Excerpt: as §1, §2, §3, §4, §5
# [3] = tested on: NDM-1 E. coli XJ141026; test: Kirby Bauer disc diffusion; assay type: cell-based
# Excerpt: as §1, §2, §3, §4, §5
# [4] = tested on: K. pneumoniae ATCC13883; test: Kirby Bauer disc diffusion; assay type: cell-based; settings: for inhibition zone diameter: Klebsiella pneumoniae, ATCC13883, read-out: KB disc diffusion
# Excerpt: (§6) Supplementary Ta b l e 2. Identification and anti biotic susceptibility of NDM-1-producing K. pneumonia strains.
# (§7) Antibiotics NDM-1 NDM-1 NDM-1 NDM-1 […]
# (§8) Cefoperazone/ sul bact am KB 32 (S) 7 (R) 7 (R) 7 (R) 7 (R)
# (§9) Nitrofurantoi n KB 21 (S) 7 (R) 9 (R) 10 (R) 9 (R) […]
# (§10) R, resistant; S, sensitive; M IC , minimum inhibitory concentration; KB, Kirb y Baue r disc diffusion method .
# (§11) The unit of M IC is “μg/mL”. The unit of KB is “mm”.
# [5] = tested on: NDM-1 K. pneumoniae XJ155018; test: Kirby Bauer disc diffusion; assay type: cell-based; settings: for inhibition zone diameter: Klebsiella pneumoniae, read-out: KB disc diffusion
# Excerpt: as §6, §7, §8, §9, §10, §11
# [6] = tested on: NDM-1 K. pneumoniae XJ155020; test: Kirby Bauer disc diffusion; assay type: cell-based; settings: for disc diffusion inhibition zone diameter: Klebsiella pneumoniae, read-out: KB disc diffusion
# Excerpt: as §6, §7, §8, §9, §10, §11
# [7] = tested on: NDM-1 K. pneumoniae XJ155019; test: Kirby Bauer disc diffusion; assay type: cell-based
# Excerpt: as §6, §7, §8, §9, §10, §11
# [8] = tested on: NDM-1 K. pneumoniae XJ155017; test: Kirby Bauer disc diffusion; assay type: cell-based; settings: for inhibition zone diameter (Kirby-Bauer disc diffusion): Klebsiella pneumoniae, read-out: KB disc diffusion
# Excerpt: as §6, §7, §8, §9, §10, §11
# [9] = tested on: K. pneumoniae ATCC13883; test: Antibiotic susceptibility (MIC), automated identification system; assay type: cell-based; settings: Supplementary Table 2
# Excerpt: (§12) Clinical isolate strains were identified and screened by the Phoenix 100 automated bacterial identification system to rapidly detect antimicrobial resistance. Total DNA was extracted by the TIANamp Bacteria DNA Kit according to the manufacturer’s protocol. The presence of blaNDM-1 was confirmed using a diagnostic kit for NDM-1 (Puruikang Bio Inc., Shenzhen, China) based on fluorescent quantitative polymerase chain reaction assay. According to the instruction, Ct values of less than 37 were considered positive.
# [10] = tested on: NDM-1 E. coli XJ141047; test: as above; assay type: cell-based; settings: Supplementary Table 1
# Excerpt: as §12
# [11] = tested on: NDM-1 K. pneumoniae XJ155018; test: as above; assay type: cell-based; settings: Supplementary Table 2
# Excerpt: as §12
# [12] = tested on: NDM-1 K. pneumoniae XJ155020; test: as above; assay type: cell-based; settings: Supplementary Table 2
# Excerpt: as §12
# [13] = tested on: NDM-1 E. coli XJ141015; test: as above; assay type: cell-based; settings: Supplementary Table 1
# Excerpt: as §12
# [14] = tested on: NDM-1 K. pneumoniae XJ155019; test: as above; assay type: cell-based; settings: Supplementary Table 2
# Excerpt: as §12
# [15] = tested on: E. coli ATCC25922; test: as above; assay type: cell-based; settings: Supplementary Table 1
# Excerpt: as §12
# [16] = tested on: NDM-1 K. pneumoniae XJ155017; test: as above; assay type: cell-based; settings: Supplementary Table 2
# Excerpt: as §12
# [17] = tested on: NDM-1 E. coli XJ141026; test: as above; assay type: cell-based; settings: Supplementary Table 1
# Excerpt: as §12
# [18] = tested on: NDM-1-producing E. coli XJ141026; test: Bactericidal activity of combination treatment; assay type: cell-based; settings: Mem 18 μM, Tha 0.4 μM, alone or combined, 16 h, listed as Mem
# Experimental: The kill curves were determined as mentioned above to investigate the bactericidal activity of the combination treatment. […] CFUs were counted.
# [19] = tested on: K. pneumoniae ATCC13883; test: MIC, broth microdilution; assay type: cell-based; settings: Klebsiella pneumoniae, ATCC13883, 16 h
# Excerpt: (§13) MIC values were identified through microdilution in sterilized 96-well polypropylene microtiter plates according to the broth microdilution guideline of the Clinical and Laboratory Standards Institute[30]. The test medium was Mueller–Hinton broth (MHB), and the strain concentrations were adjusted to 5 × 10^5 CFU/mL.
# [20] = tested on: NDM-1 E. coli XJ141047; test: MIC, broth microdilution; assay type: cell-based; settings: Escherichia coli; MHB, 5 × 10^5 CFU/mL, 16 h, 37 °C; read-out: MIC
# Excerpt: as §13
# [21] = tested on: NDM-1 K. pneumoniae XJ155018; test: MIC, broth microdilution; assay type: cell-based; settings: Klebsiella pneumoniae, 16 h
# Excerpt: as §13
# [22] = tested on: NDM-1 K. pneumoniae XJ155020; test: MIC, broth microdilution; assay type: cell-based; settings: Klebsiella pneumoniae, 16 h
# Excerpt: as §13
# [23] = tested on: NDM-1 E. coli XJ141015; test: MIC, broth microdilution; assay type: cell-based; settings: Escherichia coli; MHB, 5 × 10^5 CFU/mL, 16 h, 37 °C; read-out: MIC
# Excerpt: as §13
# [24] = tested on: E. coli ATCC35218; test: MIC, broth microdilution; assay type: cell-based; settings: Escherichia coli, ATCC35218, 16 h
# Excerpt: as §13
# [25] = tested on: NDM-1 K. pneumoniae XJ155019; test: MIC, broth microdilution; assay type: cell-based; settings: Klebsiella pneumoniae, 16 h
# Excerpt: as §13
# [26] = tested on: E. coli ATCC25922; test: MIC, broth microdilution; assay type: cell-based; settings: Escherichia coli, ATCC25922, 16 h
# Excerpt: as §13
# [27] = tested on: NDM-1 K. pneumoniae XJ155017; test: MIC, broth microdilution; assay type: cell-based; settings: Klebsiella pneumoniae, 16 h
# Excerpt: as §13
# [28] = tested on: NDM-1 E. coli XJ141026; test: MIC, broth microdilution; assay type: cell-based; settings: Escherichia coli; MHB, 5 × 10^5 CFU/mL, 16 h, 37 °C; read-out: MIC
# Excerpt: as §13
# [29] = tested on: seven NDM-1-producing strains; test: Checkerboard assay / FIC, summary; assay type: cell-based, E. coli; K. pneumoniae; settings: in combination with thanatin
# Experimental: (§14) Synergy in vitro was assessed by checkerboard assays. […] Following incubation, the synergistic/additive effect was determined by calculating the FIC indices (FICI) according to the formula: FICI = (MIC of A in combination/MIC of A) + (MIC of B in combination/MIC of B). The synergy or additive was defined according to standard criteria (FICI ≤ 0.5 was defined as synergistic; 0.5 < FICI ≤ 1 was defined as additive; 1 < FICI ≤ 4 was defined as indifference; FICI > 4 was defined as antagonism)[39].
# [30] = tested on: E. coli XJ141026-infected BALB/c mice; test: Thanatin + meropenem in sepsis model: survival; assay type: in vivo, mouse (E. coli infection); settings: alone or combined, single i.p. dose, n = 14
# Experimental: BALB/c mice were infected intraperitoneally with 8 × 10^7 CFU of E. coli XJ141026 in 0.1 mL of MHB. […] The model group was intraperitoneally injected with an equivalent volume of PBS. […] In addition, the survival rates were detected as described above.
# [31] = tested on: NDM-1 E. coli XJ141026; test: Checkerboard assay / FIC; assay type: cell-based; settings: Escherichia coli
# Experimental: as §14
# [32] = target: T1, New Delhi metallo-β-lactamase-1 …; test: cell-based or functional assay
# [33] = target: T1, New Delhi metallo-β-lactamase-1 …; test: enzyme inhibition kinetics; 1 nM purified NDM-1 with 10 μM ZnSO4, pre-incubated 20 min at 30 °C with thanatin; imipenem 100-1600 μM; initial rates fitted to the competitive inhibition model; 50 mM HEPES, 0.05% Tween-20; settings: both partners purified
# [34] = target: T1, New Delhi metallo-β-lactamase-1 …; test: MST; RED-tris-NTA-labelled apo-NDM-1 (100 nM, mixed 1:1) with serially diluted thanatin; 50 mM HEPES pH 6.8, 0.05% Tween-20; 30 min at room temperature; Monolith NT.115 Pico, medium MST power; settings: both partners purified
molecule,measurement,setting,value
CO/N=C(\C(=O)N[C@@H]1C(=O)N2C(C(=O)O)=C(COC(N)=O)CS[C@H]12)c1ccco1 [Cefuroxime],susceptibility class (KB),[1],R
same,inhibition zone diameter,[1],7 mM
same,susceptibility class (KB),[2],R
same,susceptibility class (KB),[3],R
same,susceptibility class (KB),[4],S
same,inhibition zone diameter,[4],23 mM
same,susceptibility class (KB),[5],R
same,inhibition zone diameter,[5],7 mM
same,susceptibility class (KB),[6],R
same,disc diffusion inhibition zone diameter,[6],7 mM
same,susceptibility class (KB),[7],R
same,susceptibility class (KB),[8],R
same,inhibition zone diameter (Kirby-Bauer disc diffusion),[8],7 mM
C[C@@H](O)[C@H]1C(=O)N2C(C(=O)O)=C(S[C@@H]3CN[C@H](C(=O)N(C)C)C3)[C@H](C)[C@H]12 [Meropenem],MIC,"[9]; Klebsiella pneumoniae, ATCC13883",≤ 1 µg/mL
same,susceptibility class (MIC),[9],S
same,MIC,[10]; Escherichia coli,> 8 µg/mL
same,susceptibility class (MIC),[10],R
same,MIC,[11]; Klebsiella pneumoniae,> 8 µg/mL
same,susceptibility class (MIC),[11],R
same,MIC,[12]; Klebsiella pneumoniae,> 8 µg/mL
same,susceptibility class (MIC),[12],R
same,MIC,[13]; Escherichia coli,> 8 µg/mL
same,susceptibility class (MIC),[13],R
same,MIC,[14]; Klebsiella pneumoniae,> 8 µg/mL
same,susceptibility class (MIC),[14],R
same,MIC,"[15]; Escherichia coli, ATCC25922",≤ 1 µg/mL
same,susceptibility class (MIC),[15],S
same,MIC,[16]; Klebsiella pneumoniae,> 8 µg/mL
same,susceptibility class (MIC),[16],R
same,MIC,[17]; Escherichia coli,> 8 µg/mL
same,susceptibility class (MIC),[17],R
same,bacterial count,[18]; replicate 1,11.61 Log10(CFU/mL) and 4.04E+11 CFU/mL
same,bacterial count,[18]; replicate 2,12.11 Log10(CFU/mL) and 1.30E+12 CFU/mL
same,bacterial count,[18]; replicate 3,11.93 Log10(CFU/mL) and 8.52E+11 CFU/mL
same,bacterial count,[18]; replicate 4,10.88 Log10(CFU/mL) and 7.65E+10 CFU/mL
same,MIC,[19],< 0.125 µg/mL
same,MIC,[20],64 µg/mL
same,MIC,[21],128 µg/mL
same,MIC,[22],128 µg/mL
same,MIC,[23],64 µg/mL
same,MIC,[24],< 0.125 µg/mL
same,MIC,[25],128 µg/mL
same,MIC,[26],< 0.125 µg/mL
same,MIC,[27],> 256 µg/mL
same,MIC,[28],64 µg/mL
same,"FIC indices, all seven strains",[29],≤ 1
same,effect of combination,[29],synergistic or additive
same,Survival (number of mice),"[30]; Tha 0.1 mg/kg, Mem 10 mg/kg, Day 7",4
same,survival rate,"[30]; thanatin 0.1 mg/kg, meropenem 10 mg/kg",30%
same,MIC,[31]; in the presence of sub-MIC thanatin,18 µM
same,MIC,[31]; meropenem alone,144 µM
O=C1CN(/N=C/c2ccc([N+](=O)[O-])o2)C(=O)N1 [Nitrofurantoin],susceptibility class (KB),[1],S
same,inhibition zone diameter,[1],19 mM
same,susceptibility class (KB),[2],R
same,susceptibility class (KB),[3],R
same,Kb,"[3]; Escherichia coli, read-out: KB disc diffusion",17000 µM
same,susceptibility class (KB),[4],S
same,inhibition zone diameter,[4],21 mM
same,susceptibility class (KB),[5],R
same,inhibition zone diameter,[5],9 mM
same,susceptibility class (KB),[6],R
same,disc diffusion inhibition zone diameter,[6],9 mM
same,susceptibility class (KB),[7],R
same,Kb,"[7]; Klebsiella pneumoniae, read-out: KB disc diffusion",10000 µM
same,susceptibility class (KB),[8],R
same,inhibition zone diameter (Kirby-Bauer disc diffusion),[8],7 mM
"GSKKPVPIIYCNRRTGKCQRM (disulfide 11-18, thanatin, inducible 21-residue insect peptide; source: synthetic peptide (solid-phase, Fmoc), purified by reverse-phase HPLC to over 98%) [Thanatin]","inhibition of imipenem hydrolysis by purified NDM-1 (1 nM enzyme, 100 μM imipenem, 12 concentrations of thanatin), IC50",[32],3.21 µM
same,Ki,[33],2.84 µM
same,Kd,[34],~0.71 µM
